Measured values as given in patent publication US20250296953A1, “3,4-THIAZOLO-STEROIDS AND METHODS OF MAKING AND USING THE SAME” (Arkansas State University - Jonesboro, priority 2018, published 2025).

How the values were obtained:
HCT-15 (Colon Cancer) = experiment: NCI 60 one dose screen; assay type: cell-based, human
SK-MEL-5 = experiment: Melanoma cytotoxicity assay (resazurin); assay type: cell-based; conditions: for SK-MEL-5 (% inhibition): SK-MEL-5 melanoma cells, 24 hours with compound, resazurin, concentration not given
Method in brief: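 ~4000 cells/well, 24 h attach, 37° C/5% CO2; cpd triplicate, 24 h; resazurin 6 h; fluor 544/590 nm. % viability vs DMSO after media-blank subtraction; IC50 from dilution series, sigmoidal fit.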

MALME-3M = experiment: Melanoma cytotoxicity assay (resazurin); assay type: cell-based; conditions: human, 24 h
Method in brief: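 MALME-3M cells (~4000/well) seeded 24 h, then exposed to compound in triplicate for 24 h at 37° C, 5% CO2. Resazurin added for 6 h, fluorescence read at 544/590 nm; background-subtracted viability normalised to DMSO wells. IC50 from sigmoidal fit of serial dilutions.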

LOX IMVI = experiment: Melanoma cytotoxicity assay (resazurin); assay type: cell-based
Method in brief: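 Cells are plated at roughly 4000 per well and allowed 24 h before compound addition in triplicate. After a further 24 h, resazurin is added for 6 h and fluorescence measured; percent viability is normalized to DMSO-treated wells.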

Compound	Growth Percent (HCT-15 (Colon Cancer))	SK-MEL-5 (% inhibition) (SK-MEL-5)	also measured
(1S,2R,13R,14S,18S)-7-(2,4-dimethylanilino)-2,18-dimethyl-6-thia-8-azapentacyclo[11.7.0.02,10.05,9.014,18]icosa-5(9),7,10-trien-17-one [IIa.14]	0.81%	–	–
C[C@]12CCc3sc(Nc4ccc(OC(F)(F)F)cc4)nc3C1=CC[C@@H]1[C@@H]2CC[C@]2(C)C(=O)CC[C@@H]12 [IIa.19, (1S,2R,13R,14S,18S)-2,18-dimethyl-7-[4-(trifluoromethoxy)anilino]-6-thia-8-azapentacyclo[11.7.0.02,10.05,9.014,18]icosa-5(9),7,10-trien-17-one]	38.33%	43%	–
C[C@]12CC[C@H]3[C@@H](CC=C4c5sc(Nc6ccccc6)nc5CC[C@@]43C)[C@@H]1CC[C@@H]2O [IIIa.10, (1S,2R,13R,14S,17S,18S)-7-anilino-2,18-dimethyl-8-thia-6-azapentacyclo[11.7.0.02,10.05,9.014,18]icosa-5(9),6,10-trien-17-ol]	−30.18%	–	MALME-3M (% viability) (MALME-3M): 68.28%; SK-MEL-5 (% viability) (SK-MEL-5; human, 24 h): 14.72%; LOX-IMVI (% viability) (LOX IMVI; human, 24 h): 27%
C[C@]12CCc3sc(Nc4ccc(F)cc4F)nc3C1=CC[C@@H]1[C@@H]2CC[C@]2(C)C(=O)CC[C@@H]12 [IIa.10, (1S,2R,13R,14S,18S)-7-(2,4-difluoroanilino)-2,18-dimethyl-6-thia-8-azapentacyclo[11.7.0.02,10.05,9.014,18]icosa-5(9),7,10-trien-17-one]	7.76%	48%	–
C[C@]12CCc3nc(N)sc3C1=CC[C@@H]1[C@@H]2CC[C@]2(C)C(=NNC(N)=O)CC[C@@H]12 [IVb.1]	−47.82%	–	–
C[C@]12CCc3sc(Nc4cccc(O)c4)nc3C1=CC[C@@H]1[C@@H]2CC[C@]2(C)C(=O)CC[C@@H]12 [IIa.17, (1S,2R,13R,14S,18S)-7-(3-hydroxyanilino)-2,18-dimethyl-6-thia-8-azapentacyclo[11.7.0.02,10.05,9.014,18]icosa-5(9),7,10-trien-17-one]	−47.90%	–	–
(1S,2R,13R,14S,18S)-7-(3-fluoroanilino)-2,18-dimethyl-6-thia-8-azapentacyclo[11.7.0.02,10.05,9.014,18]icosa-5(9),7,10-trien-17-one [IIa.8]	6.88%	84%	LOX-IMVI (% inhibition) (LOX IMVI; LOX IMVI melanoma cells, 24 hours with compound, resazurin, concentration not given): 79%; IC50 (LOX IMVI; LOX IMVI melanoma cells, 24 hours, resazurin): > 20 µM
C[C@]12CCc3nc(Nc4ccc(O)cc4)sc3C1=CC[C@@H]1[C@@H]2CC[C@]2(C)C(=O)CC[C@@H]12 [IIa.35]	−67.96%	–	–
C[C@]12CCc3sc(NCCc4ccccc4)nc3C1=CC[C@@H]1[C@@H]2CC[C@]2(C)C(=O)CC[C@@H]12 [IIa.2, (1S,2R,13R,14S,18S)-2,18-dimethyl-7-(2-phenylethylamino)-6-thia-8-azapentacyclo [11.7.0.02,10.05,9.014,18]icosa-5(9),7,10-trien-17-one]	22.48%	73%	–
C[C@]12CC[C@H]3[C@@H](CC=C4c5sc(-c6ccc(O)cc6)nc5CC[C@@]43C)[C@@H]1CC[C@@H]2O [III.5, (1S,2R,13R,14S,17S,18S)-7-(4-hydroxyphenyl)-2,18-dimethyl-8-thia-6-azapentacyclo[11.7.0.02,10.05,9.014,18]icosa-5(9),6,10-trien-17-ol]	29.48%	–	–
